These compounds were tested against HCV RNA-dependent RNA polymerase NS5B (Δ21) (Hepatitis C virus genotype 1b, UniProt P26663) (assay: Assay for HCV RNA-dependent RNA polymerase activity (SPA, [3H]-GTP incorporation)).
Sequence of HCV RNA-dependent RNA polymerase NS5B (Δ21) (P26663 2420-2989, stated change not applied): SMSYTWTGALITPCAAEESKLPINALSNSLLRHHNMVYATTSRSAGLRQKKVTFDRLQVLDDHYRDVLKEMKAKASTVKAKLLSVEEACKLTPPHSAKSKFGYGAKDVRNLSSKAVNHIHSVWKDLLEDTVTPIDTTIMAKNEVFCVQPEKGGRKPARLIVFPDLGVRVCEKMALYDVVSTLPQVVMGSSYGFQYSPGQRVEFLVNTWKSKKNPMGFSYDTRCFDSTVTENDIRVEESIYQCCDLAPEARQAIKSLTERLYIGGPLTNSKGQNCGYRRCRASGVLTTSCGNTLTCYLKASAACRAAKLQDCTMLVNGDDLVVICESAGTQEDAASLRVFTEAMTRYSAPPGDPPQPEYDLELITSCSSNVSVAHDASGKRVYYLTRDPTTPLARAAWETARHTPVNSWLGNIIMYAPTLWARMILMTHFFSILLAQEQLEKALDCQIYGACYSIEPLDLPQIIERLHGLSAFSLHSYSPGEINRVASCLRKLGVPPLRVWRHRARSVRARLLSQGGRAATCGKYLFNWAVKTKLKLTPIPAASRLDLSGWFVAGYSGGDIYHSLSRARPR
Type: biochemical
Experimental: Assay for HCV RNA-dependent RNA Polymerase Activity
Inhibitory activity of the present compounds against HCV RNA-dependent RNA polymerase was assayed according to the methods disclosed in U.S. Patent Application U.S.2004/038993, content of which is incorporated herein by reference; and those described in Ferrari, E.; Wright-Minogue, J.; Fang, J. W. S.; Baroudy, B. M.; Lau, J. Y. N.; Hong, Z. J. Virol. 1999, 73, 1649.
Briefly, 50 μl reactions containing 20 mM HEPES (pH 7.3), 7.5 mM DTT, 20 units/ml RNasIN, 0.5 ug/ml biotinylated oligoG12, 5 μg/ml polyC, 5 μM GTP, 20 μCi/ml [^3H]-GTP, 10 mM MgCl2, 60 mM NaCl, 100 μg/ml BSA, and 50 nM NS5B (Δ21) were incubated at room temperature for three hours in 96-well plates with or without test compounds. Assay was terminated by the addition of 50 μl 10 mg/ml streptavidin-coated SPA beads supplemented with 100 mM EDTA, and the incorporation of labeled GTP determined by a TopCount Scintillation Counter. IC50 values were calculated from single experiments using 11 serial 2-fold dilutions (0.05–50 μM), and data were considered reliable only when the IC50 value of a positive internal control was within standard deviation range.
Work on `O=C(Cn1nc(C(=O)O)cc1OCc1ccccc1)N[C@H]1CCCC[C@@H]1OCc1ccccc1` [Compound 1] yielded an IC50 of 43 µM. `CCOc1ccccc1COc1cc(C(=O)O)nn1CC(=O)N[C@H]1CCCC[C@@H]1OCc1ccccc1` [Compound 2] gave an IC50 of 1 µM. Compound `O=C(Cn1nc(C(=O)O)cc1OCc1ccccc1-c1ccccc1)N[C@H]1CCCC[C@@H]1OCc1ccccc1` [Compound 3] has an IC50 of 1 µM. Work on `O=C(Cn1nc(C(=O)O)cc1OCc1ccccc1CS(=O)(=O)c1ccccc1)N[C@H]1CCCC[C@@H]1OCc1ccccc1` [Compound 4] yielded an IC50 of 32 µM. Compound `O=C(Cn1nc(C(=O)O)cc1OCc1ccccc1)Nc1ccccc1OCc1ccccc1` [Compound 5] has an IC50 of 11 µM. With `CCOc1ccccc1COc1cc(C(=O)O)nn1CC(=O)Nc1ccccc1OCc1ccccc1` [Compound 6] the IC50 was 40 µM. `O=C(Cn1nc(C(=O)O)cc1OCc1ccccc1-c1ccccc1)Nc1ccccc1OCc1ccccc1` [Compound 7] showed an IC50 of 11 µM. `O=C(Cn1nc(C(=O)O)cc1OCc1ccccc1CS(=O)(=O)c1ccccc1)Nc1ccccc1OCc1ccccc1` [Compound 8] showed an IC50 of 0.8 µM. For `O=C(Cn1nc(C(=O)O)cc1OCc1ccccc1-c1ccc(Cl)cc1)N[C@H]1CCCC[C@@H]1OCc1ccccc1` [Compound 10], the IC50 was 0.064 µM. `O=C(Cn1nc(C(=O)O)cc1OCc1cc(F)cc(C(F)(F)F)c1)N[C@H]1CCCC[C@@H]1OCc1ccccc1` [Compound 11, 1-[((1S, 2S)-2-Benzyloxy-cyclohexylcarbamoyl)-methyl]-5-(3-fluoro-5-trifluoromethyl-benzyloxy)-1H-pyrazole-3-carboxylic acid] showed an IC50 of 1.8 µM. `O=C(Cn1nc(C(=O)O)cc1OCc1cc(Cl)ccc1Cl)N[C@H]1CCCC[C@@H]1OCc1ccccc1` [Compound 12] gave an IC50 of 3.9 µM. `O=C(Cn1nc(C(=O)O)cc1OCc1ccccc1Cl)N[C@H]1CCCC[C@@H]1OCc1ccccc1` [Compound 13] gave an IC50 greater than 12.5 µM. With `O=C(Cn1nc(C(=O)O)cc1OCc1ccccc1F)N[C@H]1CCCC[C@@H]1OCc1ccccc1` [Compound 14] the IC50 was greater than 12.5 µM. Compound `O=C(Cn1nc(C(=O)O)cc1OCc1ccc(Cl)cc1)N[C@H]1CCCC[C@@H]1OCc1ccccc1` [Compound 15] has an IC50 of 2.4 µM. For `Cc1cccc(COc2cc(C(=O)O)nn2CC(=O)N[C@H]2CCCC[C@@H]2OCc2ccccc2)c1F` [Compound 16], the IC50 was 8.4 µM. With `O=C(Cn1nc(C(=O)O)cc1OCc1ccc(F)cc1Cl)N[C@H]1CCCC[C@@H]1OCc1ccccc1` [Compound 17] the IC50 was 9.5 µM. `O=C(Cn1nc(C(=O)O)cc1OCc1cccc(C(F)(F)F)c1)N[C@H]1CCCC[C@@H]1OCc1ccccc1` [Compound 18] gave an IC50 of 2.1 µM. For `O=C(Cn1nc(C(=O)O)cc1OCc1ccc(C(F)(F)F)cc1)N[C@H]1CCCC[C@@H]1OCc1ccccc1` [Compound 19], the IC50 was 0.62 µM. `O=C(Cn1nc(C(=O)O)cc1OCc1ccccc1C(F)(F)F)N[C@H]1CCCC[C@@H]1OCc1ccccc1` [Compound 20] was tested, and the IC50 was 2.9 µM. Work on `O=C(Cn1nc(C(=O)O)cc1OCc1ccc(F)cc1)N[C@H]1CCCC[C@@H]1OCc1ccccc1` [Compound 21] yielded an IC50 of 13 µM. With `Cc1ccc(COc2cc(C(=O)O)nn2CC(=O)N[C@H]2CCCC[C@@H]2OCc2ccccc2)cc1F` [Compound 22] the IC50 was 3 µM. In the case of `O=C(Cn1nc(C(=O)O)cc1OCc1cc(F)cc(F)c1)N[C@H]1CCCC[C@@H]1OCc1ccccc1` [Compound 23], the IC50 is reported as 12 µM. For `O=C(Cn1nc(C(=O)O)cc1OCc1cccc(F)c1F)N[C@H]1CCCC[C@@H]1OCc1ccccc1` [Compound 24], the IC50 was greater than 12.5 µM. For `O=C(Cn1nc(C(=O)O)cc1OCc1ccc(F)c(F)c1)N[C@H]1CCCC[C@@H]1OCc1ccccc1` [Compound 25], the IC50 was 4.3 µM. With `O=C(Cn1nc(C(=O)O)cc1OCc1c(F)cccc1F)N[C@H]1CCCC[C@@H]1OCc1ccccc1` [Compound 26] the IC50 was greater than 50 µM. Work on `O=C(Cn1nc(C(=O)O)cc1OCc1cccc(Cl)c1)N[C@H]1CCCC[C@@H]1OCc1ccccc1` [Compound 27] yielded an IC50 of 8.6 µM. For `O=C(Cn1nc(C(=O)O)cc1OCc1cccc(F)c1)N[C@H]1CCCC[C@@H]1OCc1ccccc1` [Compound 28], the IC50 was greater than 12.5 µM. `O=C(Cn1nc(C(=O)O)cc1OCc1ccc(F)cc1F)N[C@H]1CCCC[C@@H]1OCc1ccccc1` [Compound 29] showed an IC50 greater than 12.5 µM. Compound `O=C(Cn1nc(C(=O)O)cc1OCc1cccc(C(F)(F)F)c1F)N[C@H]1CCCC[C@@H]1OCc1ccccc1` [Compound 30] has an IC50 of 2 µM. Compound `O=C(Cn1nc(C(=O)O)cc1OCc1ccc(F)c(C(F)(F)F)c1)N[C@H]1CCCC[C@@H]1OCc1ccccc1` [Compound 31] has an IC50 of 1.4 µM. Work on `O=C(Cn1nc(C(=O)O)cc1OCc1ccc(C(F)(F)F)c(F)c1)N[C@H]1CCCC[C@@H]1OCc1ccccc1` [Compound 32] yielded an IC50 of 0.28 µM. Work on `O=C(Cn1nc(C(=O)O)cc1OCc1cc(F)ccc1C(F)(F)F)N[C@H]1CCCC[C@@H]1OCc1ccccc1` [Compound 33] yielded an IC50 of 2.9 µM. `O=C(Cn1nc(C(=O)O)cc1OCc1cc(C(F)(F)F)ccc1F)N[C@H]1CCCC[C@@H]1OCc1ccccc1` [Compound 34] gave an IC50 of 6.1 µM. With `O=C(Cn1nc(C(=O)O)cc1OCc1cccc(Cl)c1F)N[C@H]1CCCC[C@@H]1OCc1ccccc1` [Compound 35] the IC50 was 9.2 µM. Compound `O=C(Cn1nc(C(=O)O)cc1OCc1ccc(Cl)c(Cl)c1)N[C@H]1CCCC[C@@H]1OCc1ccccc1` [Compound 36] has an IC50 of 0.86 µM. Work on `O=C(Cn1nc(C(=O)O)cc1OCc1ccc(C(F)(F)F)cc1F)N[C@H]1CCCC[C@@H]1OCc1ccccc1` [Compound 37] yielded an IC50 of 6.2 µM. With `O=C(Cn1nc(C(=O)O)cc1OCc1ccc(F)cc1C(F)(F)F)N[C@H]1CCCC[C@@H]1OCc1ccccc1` [Compound 38] the IC50 was 2.6 µM. `O=C(Cn1nc(C(=O)O)cc1OCc1cccc(Oc2ccccc2F)c1)N[C@H]1CCCC[C@@H]1OCc1ccccc1` [Compound 39] showed an IC50 of 2.2 µM. With `O=C(Cn1nc(C(=O)O)cc1OCc1cc(F)ccc1C(F)(F)F)N[C@H]1CCCC[C@@H]1OCc1ccccc1` [Compound 40] the IC50 was 3.1 µM. Work on `O=C(Cn1nc(C(=O)O)cc1OCc1cc(Cl)ccc1F)N[C@H]1CCCC[C@@H]1OCc1ccccc1` [Compound 41] yielded an IC50 of 7.8 µM. Work on `O=C(Cn1nc(C(=O)O)cc1OCc1ccc(F)c(Cl)c1)N[C@H]1CCCC[C@@H]1OCc1ccccc1` [Compound 42] yielded an IC50 of 13 µM. In the case of `Cc1cc(COc2cc(C(=O)O)nn2CC(=O)N[C@H]2CCCC[C@@H]2OCc2ccccc2)ccc1F` [Compound 43], the IC50 is reported as 3.1 µM. For `O=C(Cn1nc(C(=O)O)cc1OCc1cccc(F)c1C(F)(F)F)N[C@H]1CCCC[C@@H]1OCc1ccccc1` [Compound 44], the IC50 was 4.5 µM. Work on `O=C(Cn1nc(C(=O)O)cc1OCc1ccc2ccccc2c1)N[C@H]1CCCC[C@@H]1OCc1ccccc1` [Compound 45] yielded an IC50 of 6.8 µM. `O=C(Cn1nc(C(=O)O)cc1OCc1cc(F)ccc1F)N[C@H]1CCCC[C@@H]1OCc1ccccc1` [Compound 46] was tested, and the IC50 was greater than 12.5 µM. In the case of `COc1cccc(COc2cc(C(=O)O)nn2CC(=O)N[C@H]2CCCC[C@@H]2OCc2ccccc2)c1` [Compound 47], the IC50 is reported as greater than 50 µM. In the case of `O=C(Cn1nc(C(=O)O)cc1OCc1cccc(C(=O)O)c1)N[C@H]1CCCC[C@@H]1OCc1ccccc1` [Compound 48], the IC50 is reported as greater than 50 µM. `COc1cccc(-c2ccccc2COc2cc(C(=O)O)nn2CC(=O)N[C@H]2CCCC[C@@H]2OCc2ccccc2)c1` [Compound 49] gave an IC50 of 3.6 µM. `COc1ccc(-c2ccccc2COc2cc(C(=O)O)nn2CC(=O)N[C@H]2CCCC[C@@H]2OCc2ccccc2)cc1` [Compound 50, 1-[(2-benzyloxy-cyclohexylcarbamoyl)-methyl]-5-(4′-methoxy-biphenyl-2-ylmethoxy)-1H-pyrazole-3-carboxylic acid] was tested, and the IC50 was 0.38 µM. In the case of `CS(=O)(=O)c1cccc(-c2ccccc2COc2cc(C(=O)O)nn2CC(=O)N[C@H]2CCCC[C@@H]2OCc2ccccc2)c1` [Compound 51], the IC50 is reported as 22 µM. In the case of `CS(=O)(=O)c1ccc(-c2ccccc2COc2cc(C(=O)O)nn2CC(=O)N[C@H]2CCCC[C@@H]2OCc2ccccc2)cc1` [Compound 52], the IC50 is reported as 9.2 µM. `O=C(Cn1nc(C(=O)O)cc1OCc1ccccc1-c1cccc(Cl)c1)N[C@H]1CCCC[C@@H]1OCc1ccccc1` [Compound 53] showed an IC50 of 0.78 µM. For `O=C(Cn1nc(C(=O)O)cc1OCc1ccccc1-c1ccccc1Cl)N[C@H]1CCCC[C@@H]1OCc1ccccc1` [Compound 54], the IC50 was 2.6 µM. Compound `O=C(Cn1nc(C(=O)O)cc1OCc1ccccc1-c1cccc(C(=O)O)c1)N[C@H]1CCCC[C@@H]1OCc1ccccc1` [Compound 55] has an IC50 greater than 12.5 µM. With `O=C(Cn1nc(C(=O)O)cc1OCc1ccccc1-c1ccc(C(=O)O)cc1)N[C@H]1CCCC[C@@H]1OCc1ccccc1` [Compound 56] the IC50 was greater than 12.5 µM. With `O=C(Cn1nc(C(=O)O)cc1OCc1ccccc1-c1cccs1)N[C@H]1CCCC[C@@H]1OCc1ccccc1` [Compound 57] the IC50 was 2.1 µM. `O=C(Cn1nc(C(=O)O)cc1OCc1ccccc1-c1ccsc1)N[C@H]1CCCC[C@@H]1OCc1ccccc1` [Compound 58, 1-[(2-benzyloxy-cyclohexylcarbamoyl)-methyl]-5-(2-thiophen-3-yl-benzyloxy)-1H-pyrazole-3-carboxylic acid] was tested, and the IC50 was 0.75 µM. Compound `CC(C)(C)COc1cc(C(=O)O)nn1CC(=O)N[C@H]1CCCC[C@@H]1OCc1ccccc1` [Compound 59] has an IC50 greater than 12.5 µM. For `CC(C)COc1cc(C(=O)O)nn1CC(=O)N[C@H]1CCCC[C@@H]1OCc1ccccc1` [Compound 60], the IC50 was greater than 50 µM. Work on `O=C(Cn1nc(C(=O)O)cc1OCc1ccccc1I)N[C@H]1CCCC[C@@H]1OCc1ccccc1` [Compound 61] yielded an IC50 of 6.5 µM.
